{
  "source": "patent US4513008A",
  "about": "“Virucidal compositions and therapy” (The Vinoxen Company, Inc., priority 1982, dated 1985)",
  "key": {"[1]": {"system": "herpes simplex virus type 2 (HSV-2)", "assay": "In vitro HSV-2 bioassay: virucidal plaque assay (HEP-2 cells)", "type": "cell-based, HSV-2 strain 333", "details": "for plaque count / titer: Table 3", "protocol": "Evidence of the efficacy of the virucides of the invention in vitro has been obtained from bioassay using HSV-2, using a standard assay procedure. Serial dilutions of the compounds were tested for their ability to prevent plaque formation by a stock virus suspension. Reduction of plaque titer by test compounds as compared to mock treated controls was indicative of virucidal activity. […] These represent the upper limit for the drug concentration, since dilutions were not carried beyond 1:6400 and in some cases 1:12800.\nCell Culture. Cell cultures used for the propagation and titration of HSV-2 were the human diploid lung embryonic line MRC-5 and the human malignant epitheloid cell line HEP-2 respectively. Stock monolayer cultures of both cell lines were propagated in Dulbecco's Modified Eagle's medium (DME) supplemented with 10% (V/V) calf serum. Spinner cultures for mass production of HEP-2 cells were grown in Joklik's medium supplemented with 10% (V/V) calf serum and 1% (W/V) pluronic acid. Monolayer cultures of HEP-2 cells for plaque or virucidal assay were seeded into 60 mm dishes in DME supplemented with 10% calf serum and antibiotics. Stock cultures were maintained in antibiotic free medium.\nHerpes simplex virus, type 2 (HSV-2) strain 333 was obtained from Dr. John Hughes of the Dept. of Medical Microbiology, College of Medicine, The Ohio State University. Stocks of HSV-2 were prepared in the human diploid embryonic lung cell line, MRC-5. Confluent MRC-5 monolayer cultures in T-75 plastic flasks were washed one time with Hank's and Balanced Salt solution (HBSS) and infected with 0.5 ml of HSV-2, strain 333 stock. Virus was adsorbed for 1 hour at 37° C. Then the culture was refed with 15 ml of DME supplemented with 1% (V/V) calf serum. Virus was harvested 48 hours later when cytopathology was complete. Cultures were frozen and thawed rapidly three times to release cell associated virus, clarified by centrifugation at 10,000×g for 15 minutes at 4° C., aliquoted into 5 ml lots and frozen at -70° C. One lot was taken for virus titration.\nHSV-2 was titrated by plaque assay in HEP-2 cells under a semi-solid methyl cellulose overlay. Tenfold serial dilutions of virus were prepared in HBSS and 0.3 ml aliquots of each dilution inoculated onto triplicate HEP-2 cell monolayers in 60 mm plastic petri dishes. Adsorption of virus was for 1 hour at 37° C. Plates were then overlayed with 5 ml of a 1:1 mixture of 2×DME supplemented with 2% (V/V) calf serum and 3% (W/V) methyl cellulose to give a final 1×DME supplemented with 1% calf serum and 1.5% methylcellulose. Infected plates were incubated at 37° C. in a humidified 10% CO2 atmosphere for 48 hours. Virus plaques were visualized by staining with crystal violet and counted under a dissecting microscope. Virus titers were calculated from the plaque numbers by averaging the plaque count and multiplying by 3.3 (0.3 ml plates).\nThe following procedure was employed to assay virucidal activity in various test samples. Compounds were received as a solution in DMSO and were serially diluted in HBSS as described for each experiment. For the test, 1 ml of each dilution was mixed with 1 ml of a stock virus suspension diluted to approximately 9×10^3 plaque forming units (P.F.U.)/ml. This test mixture was incubated at 25° C. for 30 minutes, then inoculated onto a cell culture (HEP-2) for plaque assay as described previously. Mock treated (virus plus HBSS) controls were included with each test. Any reduction of plaque titer by test compounds as compared to the mock treated control was indicative of virucidal activity.\nSamples from RP-HPLC fractionation of the CLOH, produced according to Example 2, as well as purified samples of palmitic, myristic and oleic acids and Vitamin D2, were tested for HSV-2 bioactivity. […] Pure oleic acid was not active in this assay, nor were palmitic and myristic acids and Vitamin D2. […]"}, "[2]": {"system": "HSV-2", "assay": "In vivo mouse bioassay: intravaginal HSV-2 infection, topical treatment", "set-up": "species or system HSV-2 strain 333 in female Swiss Webster mice; key to Max. Lesion Score: 0: no clinical signs of vaginal infection; ±: slight perivaginal redness; perivaginal redness and swelling of 1-2 mm; perivaginal redness and swelling of 2-3 mm; perivaginal and perianal redness and swelling of 3-4 mm; perivaginal and perianal redness and swelling of 4 mm or more, with exudate", "details": "for # Infected, Day 14 / # of Deaths, Day 14: 10 animals/group"}},
  "note": "Entries after “also recorded” stand apart in the source; their conditions may differ.",
  "data": [
    {"smiles": "CCC=CCC=CCC=CCC=CCC=CCC=CCCC(=O)O", "note": "[DHA, 4,7,10,13,16,19 Docosahexaenoic Acid]", "values": [
      {"measurement": "MIC", "setting": "[1]; Human alphaherpesvirus 2, 0.5 h, Table 4 run, 30 min at 25° C., upper limit, dilutions to 1:12800, read-out: MIC (lowest concentration producing a 3-log reduction in virus titer)", "value": 0.47, "unit": "µg/mL"},
      {"measurement": "plaque count", "setting": "[1]; dilution 1:10", "value": 0},
      {"measurement": "titer", "setting": "[1]; dilution 1:10, control titer 4.5 × 10^3", "value": 0},
      {"measurement": "plaque count", "setting": "[1]; dilution 1:100", "value": 0},
      {"measurement": "titer", "setting": "[1]; dilution 1:100", "value": 0},
      {"measurement": "titer", "setting": "[1]; dilution 1:400", "value": 0},
      {"measurement": "plaque count", "setting": "[1]; dilution 1:400, TNTC = too numerous to count", "value": 0},
      {"measurement": "titer", "setting": "[1]; dilution 1:800", "value": 0},
      {"measurement": "plaque count", "setting": "[1]; dilution 1:800, TNTC = too numerous to count", "value": 0},
      {"measurement": "titer", "setting": "[1]; dilution 1:1600", "value": 0},
      {"measurement": "plaque count", "setting": "[1]; dilution 1:1600, TNTC = too numerous to count", "value": 0},
      {"measurement": "titer", "setting": "[1]; dilution 1:3200", "value": 0},
      {"measurement": "plaque count", "setting": "[1]; dilution 1:3200, TNTC = too numerous to count", "value": 0},
      {"measurement": "titer", "setting": "[1]; dilution 1:6400", "value": 0},
      {"measurement": "plaque count", "setting": "[1]; dilution 1:6400, TNTC = too numerous to count", "value": 0},
      {"measurement": "titer", "setting": "[1]; dilution 1:12800", "value": 0},
      {"measurement": "plaque count", "setting": "[1]; dilution 1:12800, TNTC = too numerous to count", "value": 0},
      {"measurement": "virucidal activity against HSV-2 in words", "setting": "[1]; in vitro bioassay", "value": "potent and fast-acting virucides"},
      {"measurement": "% Mortality", "setting": "[2]; DMSO & High DHA (10 mg/ml)", "value": 20, "unit": "%"},
      {"measurement": "Day of Maximum % Morbidity", "setting": "[2]; DMSO & High DHA (10 mg/ml)", "value": 7, "unit": "days"},
      {"measurement": "Maximum % Morbidity", "setting": "[2]; DMSO & High DHA (10 mg/ml)", "value": 40, "unit": "%"},
      {"measurement": "Mean Day of Death", "setting": "[2]; DMSO & High DHA (10 mg/ml)", "value": 8.5, "unit": "days"},
      {"measurement": "% Mortality", "setting": "[2]; DMSO & Low DHA (1 mg/ml)", "value": 30, "unit": "%"},
      {"measurement": "Day of Maximum % Morbidity", "setting": "[2]; DMSO & Low DHA (1 mg/ml)", "value": 7, "unit": "days"},
      {"measurement": "Maximum % Morbidity", "setting": "[2]; DMSO & Low DHA (1 mg/ml)", "value": 40, "unit": "%"},
      {"measurement": "Mean Day of Death", "setting": "[2]; DMSO & Low DHA (1 mg/ml)", "value": 11.7, "unit": "days"},
      {"measurement": "# Infected, Day 14", "setting": "[2]; High DHA 10 mg/ml in DMSO", "value": 4},
      {"measurement": "# of Deaths, Day 14", "setting": "[2]; High DHA 10 mg/ml in DMSO", "value": 2},
      {"measurement": "# Infected, Day 14", "setting": "[2]; High DHA 10 mg/ml in PEG", "value": 5},
      {"measurement": "# of Deaths, Day 14", "setting": "[2]; High DHA 10 mg/ml in PEG", "value": 3},
      {"measurement": "# Infected, Day 14", "setting": "[2]; Low DHA 1 mg/ml in DMSO", "value": 4},
      {"measurement": "# of Deaths, Day 14", "setting": "[2]; Low DHA 1 mg/ml in DMSO", "value": 2},
      {"measurement": "Max. Lesion Score", "setting": "[2]; Low DHA 1 mg/ml in PEG", "value": "±"},
      {"measurement": "# Infected, Day 14", "setting": "[2]; Low DHA 1 mg/ml in PEG", "value": 1},
      {"measurement": "# of Deaths, Day 14", "setting": "[2]; Low DHA 1 mg/ml in PEG", "value": 0},
      {"measurement": "% Mortality", "setting": "[2]; Ointment & High DHA (10 mg/ml)", "value": 30, "unit": "%"},
      {"measurement": "Day of Maximum % Morbidity", "setting": "[2]; Ointment & High DHA (10 mg/ml)", "value": 7, "unit": "days"},
      {"measurement": "Maximum % Morbidity", "setting": "[2]; Ointment & High DHA (10 mg/ml)", "value": 50, "unit": "%"},
      {"measurement": "Mean Day of Death", "setting": "[2]; Ointment & High DHA (10 mg/ml)", "value": 11.7, "unit": "days"},
      {"measurement": "% Mortality", "setting": "[2]; Ointment & Low DHA (1 mg/ml)", "value": 0, "unit": "%"},
      {"measurement": "Day of Maximum % Morbidity", "setting": "[2]; Ointment & Low DHA (1 mg/ml)", "value": 6, "unit": "days"},
      {"measurement": "Maximum % Morbidity", "setting": "[2]; Ointment & Low DHA (1 mg/ml)", "value": 10, "unit": "%"},
      {"measurement": "Mean Day of Death", "setting": "[2]; Ointment & Low DHA (1 mg/ml)", "value": "> 14", "unit": "days"},
      {"measurement": "efficacy in mice in words", "setting": "[2]; topical, HSV-2 infected mice", "value": "effective virucidal activity against HSV-2, especially the low dose ointment preparation; also recorded: highly effective in comparison with ACV in reducing lesions and in reducing mortality rates in mice; also recorded: a low dose of DHA in the particular ointment vehicle used for test purposes appeared to have a higher activity than a high dose of the same material in the same vehicle"}
    ]}
  ]
}
